Assay results published in patent publication US9416141B2 (University of Washington through its Center for …, priority 2012, dated 2016).
Counter-ions that a name gives are not always drawn. Like-named read-outs stand apart in the source and are kept apart here.

Tested on: hair cells
Experiment: Hair cell toxicity assay in zebrafish (neomycin-induced hair cell death, DASPEI staining of neuromasts)
Assay type: in vivo
Settings: for Emax at 8.3 µM: maximum observed @ 8.3 μM test compound; for Emax at 25 µM: maximum observed @ 25 μM test compound; for EC50: zebrafish larvae 5-7 dpf, 1 h pre-treatment, then 200 micromolar neomycin + test compound 30 min, read-out: HC50 (concentration that would produce 50% hair cell survival); for Emax at 2.8 µM: maximum observed @ 2.8 μM test compound
Procedure, shortened: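 Zebrafish larvae 5-7 dpf pre-treated 1 h with compound (0.010-25 μM), then 30 min with 200 μM neomycin plus compound. DASPEI stained 10 neuromasts per fish, scored 0-2 (total 0-20), normalised to vehicle controls as % hair cell survival. HC50 linearly interpolated if survival reached ≥50%; HCmax is maximum survival.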

[1] = Danio rerio, 200 micromolar neomycin, read-out: Max HC Protection (HCmax, % hair cell survival)

Row | Structure (SMILES) | Emax at 25 µM [1] [%] | EC50 (Danio rerio) [nM] | other results
1 | CC[N+]1(C)CCc2c(sc(NC(=O)Nc3ccc(Cl)cc3)c2C(=O)N2CCOCC2)C1 (stereo not drawn) [Example 179, 2-[3-(4-Chlorophenyl)ureido]-6-ethyl-6-methyl-3-(morpholine-4-carbonyl)-4,5,6,7-tetrahydrothieno[2,3-c]pyridin-6-ium chloride] | – | – | Emax at 8.3 µM [1]: 38%
2 | CCN1CCc2c(sc(NC(=O)Nc3cccc(C#N)c3)c2C(N)=O)C1 [Example 73, 2-[3-(3-Cyanophenyl)ureido]-6-ethyl-4,5,6,7-tetrahydrothieno[2,3-c]pyridine-3-carboxamide hydrochloride] | 51 | > 10000 | –
3 | CCN1CCc2c(sc(NC(=O)Nc3ccc4ncccc4c3)c2C(N)=O)C1 [Example 79, 6-Ethyl-2-[3-(quinolin-6-yl)ureido]-4,5,6,7-tetrahydrothieno[2,3-c]pyridine-3-carboxamide dihydrochloride] | – | – | Emax at 0.3 µM (Danio rerio, maximum observed @ 0.3 μM test compound, 200 micromolar neomycin, read-out: Max HC Protection (HCmax, % hair cell survival)): 34%
4 | CC[N+]1(C)CCc2c(sc(NC(=O)Nc3ccc(Br)cc3)c2C(N)=O)C1 (stereo not drawn) [Example 220, 2-{[(4-bromophenyl)carbamoyl]amino}-3-carbamoyl-6-ethyl-6-methyl-4H,5H,6H,7H-thieno[2,3-c]pyridin-6-ium] | 98 | < 1000 | –
5 | CCN1CCc2c(sc(NC(=O)Nc3ccc(Cl)cc3)c2C(=O)N2CCOCC2)C1 [Example 95, 1-(4-chlorophenyl)-3-[6-ethyl-3-(morpholine-4-carbonyl)-4,5,6,7-tetrahydrothieno[2,3-c]pyridin-2-yl]urea hydrochloride] | 78 | 1000 to 10000 | –
6 | NC(=O)c1c(NC(=O)Nc2ccc(Cl)cc2)sc2c1CC[N+]1(CCOCC1)C2 [Example 146, 3′-Carbamoyl-2′-[3-(4-chlorophenyl)ureido]-5′,7′-dihydro-4′H-spiro[morpholine-4,6′-thieno[2,3-c]pyridin]-4-ium iodide] | 96 | 1000 to 10000 | –
7 | CC[N+]1(CC)CCc2c(sc(NC(=O)Nc3ccc(Cl)cc3)c2C(N)=O)C1 [Example 139, 3-Carbamoyl-2-[3-(4-chlorophenyl)ureido]-6,6-diethyl-4,5,6,7-tetrahydrothieno[2,3-c]pyridin-6-ium iodide] | 99 | < 1000 | –
8 | NC(=O)c1c(NC(=O)Nc2ccc(Cl)cc2)sc2c1CCN(CCCNC(=O)CCc1ccccc1)C2 [Example 210, 2-{[(4-chlorophenyl)carbamoyl]amino}-6-[3-(3-phenylpropanamido)propyl]-4H,5H,6H,7H-thieno[2,3-c]pyridine-3-carboxamide] | 99 | < 1000 | –
9 | CC[N+]1(C)CCc2c(sc(NC(=O)NCc3ccc(Cl)cc3)c2C(N)=O)C1 (stereo not drawn) [Example 148, 3-Carbamoyl-2-[3-(4-chlorobenzyl)ureido]-6-ethyl-6-methyl-4,5,6,7-tetrahydrothieno[2,3-c]pyridin-6-ium iodide] | 51 | > 10000 | –
10 | CCN1CCc2c(sc(NC(=O)Nc3cncc(Cl)c3)c2C(N)=O)C1 [Example 77, 2-[3-(5-Chloropyridin-3-yl)ureido]-6-ethyl-4,5,6,7-tetrahydrothieno[2,3-c]pyridine-3-carboxamide dihydrochloride] | 45 | – | –
11 | CCN1CCc2c(sc(NC(=O)Nc3ccc(CC(=O)O)cc3)c2C(N)=O)C1 [Example 33, 2-{4-[3-(3-Carbamoyl-6-ethyl-4,5,6,7-tetrahydrothieno[2,3-c]pyridin-2-yl)ureido]phenyl}acetic acid trifluoroacetate] | – | – | Emax at 0.93 µM (Danio rerio, maximum observed @ 0.93 μM test compound, 200 micromolar neomycin, read-out: Max HC Protection (HCmax, % hair cell survival)): 9%
12 | CC1(C[N+]2(C)CCc3c(sc(NC(=O)Nc4ccc(Cl)cc4)c3C(N)=O)C2)CC1 (stereo not drawn) [Example 196, 3-Carbamoyl-2-[3-(4-chlorophenyl)ureido]-6-methyl-6-[(1-methylcyclopropyl)methyl]-4,5,6,7-tetrahydrothieno[2,3-c]pyridin-6-ium trifluoroacetate] | – | < 1000 | Emax at 2.8 µM [1]: 85%
13 | CC(C)(C)OC(=O)NCCCN1CCc2c(sc(NC(=O)Nc3ccc(Cl)cc3)c2C(N)=O)C1 [Example 205, tert-butyl N-[3-(3-carbamoyl-2-{[(4-chlorophenyl)carbamoyl]amino}-4H,5H,6H,7H-thieno[2,3-c]pyridin-6-yl)propyl]carbamate] | – | 1000 to 10000 | Emax at 6.3 µM (Danio rerio, maximum observed @ 6.3 μM test compound, 200 micromolar neomycin, read-out: Max HC Protection (HCmax, % hair cell survival)): 81%
14 | NC(=O)c1c(NC(=O)Nc2ccc(Cl)cc2)sc2c1CCN(C1COC1)C2 [Example 6, 2-[3-(4-Chlorophenyl)ureido]-6-(oxetan-3-yl)-4,5,6,7-tetrahydrothieno[2,3-c]pyridine-3-carboxamide hydrochloride] | 72 | 1000 to 10000 | –
15 | C[N+]1(C2COC2)CCc2c(sc(NC(=O)Nc3ccc(Cl)cc3)c2C(N)=O)C1 (stereo not drawn) [Example 142, 3-Carbamoyl-2-[3-(4-chlorophenyl)ureido]-6-methyl-6-(oxetan-3-yl)-4,5,6,7-tetrahydrothieno[2,3-c]pyridin-6-ium iodide] | 82 | 1000 to 10000 | –
16 | NC(=O)c1c(NC(=O)Nc2ccc(Cl)cc2)sc2c1CCN(CCCNC(=O)c1ccccc1)C2 [Example 212, 2-{[(4-chlorophenyl)carbamoyl]amino}-6-[3-(phenylformamido)propyl]-4H,5H,6H,7H-thieno[2,3-c]pyridine-3-carboxamide] | 103 | 1000 to 10000 | –
17 | CC[N+]1(CC(C)C)CCc2c(sc(NC(=O)Nc3ccc(Cl)cc3)c2C(N)=O)C1 (stereo not drawn) [Example 200, 3-Carbamoyl-2-[3-(4-chlorophenyl)ureido]-6-ethyl-6-isobutyl-4,5,6,7-tetrahydrothieno[2,3-c]pyridin-6-ium chloride] | – | < 1000 | Emax at 2.8 µM [1]: 97%
18 | NC(=O)c1c(NC(=O)Nc2ccc(Cl)cc2)sc2c1CCN(CC(=O)O)C2 [Example 61, 2-{3-Carbamoyl-2-[3-(4-chlorophenyl)ureido]-4,5-dihydrothieno[2,3-c]pyridin-6(7H)-yl}acetic acid hydrochloride] | 24 | – | –
19 | C[N+]1(CCC(N)=O)CCc2c(sc(NC(=O)Nc3ccc(Cl)cc3)c2C(N)=O)C1 (stereo not drawn) [Example 157, 6-(3-Amino-3-oxopropyl)-3-carbamoyl-2-[3-(4-chlorophenyl)ureido]-6-methyl-4,5,6,7-tetrahydrothieno[2,3-c]pyridin-6-ium iodide] | 94 | 1000 to 10000 | –
20 | CC(C)NC(=O)CCCN1CCc2c(sc(NC(=O)Nc3ccc(Cl)cc3)c2C(N)=O)C1 [Example 25, 2-[3-(4-Chlorophenyl)ureido]-6-[4-(isopropylamino)-4-oxobutyl]-4,5,6,7-tetrahydrothieno[2,3-c]pyridine-3-carboxamide hydrochloride] | – | 1000 to 10000 | Emax at 2.8 µM [1]: 57%
21 | NC(=O)c1c(NC(=O)Nc2ccc(Cl)cc2)sc2c1CCC(N1CCC1)C2 (stereo not drawn) [Example 43, 6-(Azetidin-1-yl)-2-[3-(4-chlorophenyl)ureido]-4,5,6,7-tetrahydrobenzo[b]thiophene-3-carboxamide hydrochloride] | 93 | 1000 to 10000 | –
22 | CC(C)(C)OC(=O)CCCCN1CCc2c(sc(NC(=O)Nc3ccc(Cl)cc3)c2C(N)=O)C1 [Example 19, tert-Butyl 5-{3-carbamoyl-2-[3-(4-chlorophenyl)ureido]-4,5-dihydrothieno[2,3-c]pyridin-6(7H)-yl}pentanoate] | – | < 1000 | Emax at 8.3 µM [1]: 68%
23 | CN1C2CCC1c1sc(NC(=O)Nc3ccc(Cl)cc3)c(C(N)=O)c1C2 (single isomer, unassigned; (+)) [Example 128, (+)-2-[3-(4-Chlorophenyl)ureido]-9-methyl-5,6,7,8-tetrahydro-4H-5,8-epiminocyclohepta[b]thiophene-3-carboxamide hydrochloride] | – | – | EC50 (hydrochloride): < 1000 nM
24 | CC(C)OC(=O)CCN1CCc2c(sc(NC(=O)Nc3ccc(Cl)cc3)c2C(N)=O)C1 [Example 54, Isopropyl 3-{3-carbamoyl-2-[3-(4-chlorophenyl)ureido]-4,5-dihydrothieno[2,3-c]pyridin-6(7H)-yl}propanoate hydrochloride] | 58 | 1000 to 10000 | –
25 | CC(C)(C)CN1CCc2c(sc(NC(=O)Nc3ccc(Cl)c4ccccc34)c2C(N)=O)C1 [Example 41, 2-[3-(4-Chloronaphthalen-1-yl)ureido]-6-neopentyl-4,5,6,7-tetrahydrothieno[2,3-c]pyridine-3-carboxamide hydrochloride] | – | – | Emax at 8.3 µM [1]: 39%
26 | NCCN1CCc2c(sc(NC(=O)Nc3ccc(Cl)cc3)c2C(N)=O)C1 [Example 11, 6-(2-Aminoethyl)-2-[3-(4-chlorophenyl)ureido]-4,5,6,7-tetrahydrothieno[2,3-c]pyridine-3-carboxamide dihydrochloride] | 68 | 1000 to 10000 | –
27 | NC(=O)c1c(NC(=O)Nc2ccc(Cl)cc2)sc2c1CCN(CCCNC(=O)CCc1ccc(C(F)(F)F)cc1)C2 [Example 218, 2-{[(4-chlorophenyl)carbamoyl]amino}-6-(3-{3-[4-(trifluoromethyl)phenyl]propanamido}propyl)-4H,5H,6H,7H-thieno[2,3-c]pyridine-3-carboxamide] | – | < 1000 | Emax at 2.8 µM [1]: 103%
28 | CCN1CCc2c(sc(NC(=O)Nc3ccc(C#N)cc3)c2C(N)=O)C1 [Example 67, 2-[3-(4-Cyanophenyl)ureido]-6-ethyl-4,5,6,7-tetrahydrothieno[2,3-c]pyridine-3-carboxamide hydrochloride] | – | – | Emax at 8.3 µM [1]: 20%
